{
  "source": "patent US20250161309A1",
  "about": "“TOPICAL COMPOSITIONS AND USES THEROF” (TOPADUR PHARMA AG, priority 2022, published 2025)",
  "system": "C57BL/6 mouse model for chemotherapy-induced alopecia (CIA)",
  "test": "Preventive C57BL/6 mouse model of cyclophosphamide (chemotherapy)-induced alopecia (CIA), topical administration",
  "format": "in vivo",
  "settings": "female mice; for mice with visual melanogenesis in peeled skin: end of study; for Ki-67 mean score (positive cells near the root sheath of hair follicles, semi-quantitative grading): vehicle 0.4; for CD-31 mean score (perifollicular angiogenesis, semi-quantitative grading): vehicle group 0.8",
  "description": "Female C57BL/6 mice (Vivo Bio Tech Ltd, Telangana, India) of 6 to 9 weeks of age in stable telogen phase of hair growth cycle were used.\n100 μL of a clear solution of respective 0.0004%, 0.002% (w/v) concentrations of Cpd 1 in the corresponding vehicle (PEG-400:EtOH/7:3) (PEG-400: Central Drug House Ltd. Dehli, India; Ethanol: Changshu Hongsheng fine chemicals Co. Ltd. China) and the positive control, 2% solution (w/v) Minoxidil (Chemieliva, China) in the corresponding vehicle (PEG-400:EtOH/7:3) were topically applied to the depilated area on the dorsal back of female mice. The solutions covered a circular area of approximately 4 cm^2. The treatment regimen was twice daily for 7 days before Cyclophosphamide injection and afterwards for 3 weeks.\nAnimals (female) on day 1 weighted on average 18.8 g+0.2 ranging from 18.5 to 19.3 g. The animals were exposed by gentle clipping of hair from the dorsal back using an electric clipper. The following day, animals with clear skin were depilated using a depilatory cream. To evaluate the preventive potential of Cpd 1 in the chemotherapy-induced alopecia mouse model, animals were treated topically with 0.0004% and 0.002% Cpd 1, 2% Minoxidil and vehicle from day 1 onwards on the dorsal depilated skin with twice daily application regimen until day 10, when all the animals have attained the anagen stage. On day 11 after depilation, no application of the Cpd 1 or vehicle was done. This was considered a wash-out period. On day 12 after depilation, the animals were given intraperitoneal injection of cyclophosphamide (CYP-HiMedia Laboratories, Mumbai, India) at the dose of 150 mg/kg body weight. One day of wash-out period was given to the animals before restarting the treatment with Cpd 1. The treatment regimen was reinitiated with 0.0004% and 0.002% Cpd 1, 2% Minoxidil and vehicle in the respective groups for further 3 weeks. All the animals were observed from day 1 (experiment start) till day 30 (experiment termination and animal sacrifice day) and the hair growth score was recorded on a daily basis. The criteria for scoring of hair growth is as follows: no hair growth, pink skin—score 0; skin colour changes from pink to grey/light grey without visible hair growth—score 0.5; onset of anagen (skin colour changes from grey/light grey to dark grey/black without visible hair growth)—score 1; sparse hair growth—score 1.5; diffuse short hair growth—score 2, moderate hair growth—score 2.5 and dense, normal coat hair—score 3 (Lee B H, Lee J S, Kim Y C. Hair growth-promoting effects of lavender oil in C57BL/6 mice. Toxicol Res. (2016) 32(2):103-108). Photographs of the animals were captured before the initiation and during the course of the study. […]\nAfter completion of the experiments all animals were sacrificed by euthanasia (Choi H I, Kang B M, Jang J, Hwang S T, Kwon O. Novel effect of sildenafil on hair growth. Biochem Biophys Res Commun. (2018) 505(3):685-691). The dorsal skin of each animal was then removed by peeling. The peeled skin was spread and checked visually for the induction of melanogenesis indicated by visual blackening on the reverse side of the skin. The skin samples were evenly spread on a pre-labelled glass slide and kept in 10% formalin until further use. Later, the skin samples were embedded in paraffin and sectioned at 5 microns using a microtome and the corresponding slides per animal were prepared. The slides obtained were used for Haematoxylin & Eosin (H&E) staining and in the transverse and longitudinal sections' photomicrographs data, the total number of follicles in the dermis and the sub cutis were determined for each animal. The skin thickness was measured using Image J 1.44 software. […]",
  "data": [
    {"smiles": "CCCOc1ccc(S(=O)(=O)N2CCC(CCO[N+](=O)[O-])(CCO[N+](=O)[O-])CC2)cc1-c1nc2c(CCC)cn(CC)c2c(=O)[nH]1", "note": "[Cpd 1, (1-((3-(5-ethyl-4-oxo-7-propyl-4,5-dihydro-3H-pyrrolo[3,2-d]pyrimidin-2-yl)-4-propoxyphenyl)sulfonyl)piperidine-4,4-diyl)bis(ethane-2,1-diyl) dinitrate]", "values": [
      {"measurement": "number of hair follicles, Cpd 1 compared with 2% Minoxidil-treated groups", "value": "No significant differences"},
      {"measurement": "signs of alopecia after CYP administration on day 12", "setting": "0.0004% (w/v)", "value": "minor signs of alopecia"},
      {"measurement": "mice with visual melanogenesis in peeled skin", "setting": "0.0004% (w/v)", "value": "6/7"},
      {"measurement": "Ki-67 mean score (positive cells near the root sheath of hair follicles, semi-quantitative grading)", "setting": "0.0004% (w/v)", "value": 1.4},
      {"measurement": "CD-31 mean score (perifollicular angiogenesis, semi-quantitative grading)", "setting": "0.0004% (w/v)", "value": 1.4},
      {"measurement": "depth and development of dermal papilla and long hair shaft of hair follicles observed (longitudinal skin sections)", "setting": "0.0004% and 0.002%", "value": "majority of the animals"},
      {"measurement": "thickness of the skin compared to vehicle group", "setting": "0.0004% and 0.002%", "value": "slightly increase"},
      {"measurement": "skin color change (transition from telogen to anagen phase) compared to Minoxidil-treated group", "setting": "0.0004% and 0.002%, before CYP administration, majority of animals, end of first week of application", "value": "faster"},
      {"measurement": "increase in hair growth, 0.002% compared to 0.0004%", "setting": "0.002% (w/v)", "value": "slightly faster increase"},
      {"measurement": "signs of alopecia after CYP administration on day 12", "setting": "0.002% (w/v)", "value": "no signs of alopecia"},
      {"measurement": "mice with visual melanogenesis in peeled skin", "setting": "0.002% (w/v)", "value": "7/7"},
      {"measurement": "Ki-67 mean score (positive cells near the root sheath of hair follicles, semi-quantitative grading)", "setting": "0.002% (w/v)", "value": 1.7},
      {"measurement": "CD-31 mean score (perifollicular angiogenesis, semi-quantitative grading)", "setting": "0.002% (w/v)", "value": 1.6},
      {"measurement": "adverse effects on body weight", "setting": "30-day study, any of the groups", "value": "no adverse effects"},
      {"measurement": "behavioral changes, reaction to treatment or adverse effects in relation to general health", "setting": "30-day study, topical twice daily", "value": "no signs of behavioral changes, reaction to treatment or adverse effects"},
      {"measurement": "decrease in the mean hair growth after CYP administration", "setting": "Compound 1 treated groups", "value": "no decrease"},
      {"measurement": "number of hair follicles in the subcutis layer of the skin and total follicle counts compared to vehicle group (H&E)", "setting": "Compound 1 treated groups", "value": "significantly increased"},
      {"measurement": "animals with complete hair regrowth (hair growth score of 3)", "setting": "Cpd 1 groups (0.0004% and 0.002%)", "value": "7/7"},
      {"measurement": "increase in hair growth compared to Minoxidil and vehicle group", "setting": "from day 6/7 onwards", "value": "faster increase"}
    ]}
  ]
}
